# In PubChem BioAssay AID1996:
# Conditions: buffer; pH 7.4; 200.0 µM
row,solubility kinetic [µg/mL],SMILES
1,1.1,CC(=O)NC(=S)Nc1cccc2ccc(C)nc12
2,> 61.6,CC(CN(C)C)CN1c2ccccc2CCc2ccccc21.O=C(O)/C=C\C(=O)O (stereo not drawn)
3,1.7,Cc1cc2nc(/C(C#N)=C/c3ccncc3)[nH]c2cc1C
4,38.4,COC(=O)c1[nH]c2cc(OC)ccc2c1N=CN(C)C
5,7.5,N#Cc1c(/N=C/c2cccnc2)sc2c1CCCC2
6,> 46.6,Cc1ccc(NC(=O)c2ccsc2)cc1NS(C)(=O)=O
7,> 37.4,COc1cccc(CN2CCCCC2C(=O)O)c1 (stereo not drawn)
8,> 43,CCN1CCN(Cc2nnc(-c3ccc(C)cc3)o2)CC1
9,> 39.1,COc1ccccc1N1CCN(C(=O)C2CC2)CC1
10,8.2,CC(NC(=O)COC(=O)c1ccc(N2CCCC2=O)cc1)c1ccc(F)cc1 (stereo not drawn)
11,> 53.6,O=C1OCc2ccc(NS(=O)(=O)c3ccc(C(F)(F)F)cc3)cc21
12,> 78.6,CCCc1cc(=O)[nH]c(SCC(=O)Nc2cc(S(=O)(=O)N3CCOCC3)ccc2N(CC)CC)n1
13,> 36.5,O=C1NCC(COc2cccc3ccccc23)O1 (stereo not drawn)
14,2.4,O=[N+]([O-])c1ccc(COc2cccc3cccnc23)cc1
15,3.1,CCCCn1c(=O)[nH]c(=O)c2c1nc(-c1cccc(OC)c1)n2C
16,> 47,O=C(c1ccc([N+](=O)[O-])cc1)N1C=CC(C(F)(F)F)=NCC1
17,27.5,CC(C)(C)NC(=O)NC(=O)CN1CCc2ccccc21
18,8.7,O=C(NCCC1=CCCCC1)c1c(O)nc2ccccn2c1=O
19,> 47.9,Cc1nn(C)cc1S(=O)(=O)Nc1ccc(C(F)(F)F)cc1
20,42.4,CC(CN1CCCCC1)OC(=O)c1cccc(F)c1.Cl (stereo not drawn)
21,< 0.3,CSc1ncccc1C(=O)OCc1cccc([N+](=O)[O-])c1
22,55.5,Cc1ccc(NC(=O)CN2C(=O)NC(C)(CC(C)C)C2=O)c(Br)c1 (stereo not drawn)
23,> 48.4,NS(=O)(=O)c1ccc(CNC(=O)Cc2ccccc2F)cc1
24,3.9,Cc1cc(C)c(C)c(S(=O)(=O)NCC(=O)Nc2ccc(F)cc2)c1C

row,solubility kinetic [µg/mL],SMILES
1,44.9,CCCCNc1ncnc2sc3c(c12)CCN(CCC)C3
2,7.7,Cc1nsc(Nc2ccccc2)c1C#N
3,> 49,O=C(CN1C(=O)NC2(CCc3ccccc32)C1=O)c1cccs1 (stereo not drawn)
4,2.7,CCOC(=O)C(=CNc1ccc(C(F)(F)F)cc1)C(=O)OCC
5,> 41,O=C(NCC1CCCO1)c1ccc(F)c2ccccc12 (stereo not drawn)
6,> 53.6,O=C1CC2(CCN(C(=O)c3ccc(F)c(F)c3)CC2)Oc2ccccc21
7,41.3,CCOC(=O)C1CCCN(CCSc2ccc(C)cc2)C1.Cl (stereo not drawn)
8,> 57.8,CC(NC(=O)COc1ccccc1)C(=O)N1CCN(c2ccc(F)cc2)CC1 (stereo not drawn)
9,> 44.9,CC(=O)c1cccc(NC(=O)C2C3C=CC(C3)C2C(=O)O)c1 (stereo not drawn)
10,4.7,Cc1ccc2[nH]c(CNC(=O)c3ccc(F)cc3)cc2c1
11,33.4,COc1ccccc1N1CCNC(C)C1=O.Cl (stereo not drawn)
12,26.1,COc1cc2c(cc1OC)C(c1cccc([N+](=O)[O-])c1)NC(=O)C2 (stereo not drawn)
13,47.1,CC(C)CCNC(=O)CCCCn1c(=O)[nH]c2ccsc2c1=O
14,> 26.7,CNCc1sccc1C.Cl
15,28.7,COc1cc(C=O)ccc1Oc1ccc(S(=O)(=O)N2CCOCC2)cc1[N+](=O)[O-]
16,> 47.3,CCc1noc(C)c1C(=O)Nc1ccccc1N1CCOCC1
17,37.4,COc1ccccc1OCC(O)CN1CCOCC1 (stereo not drawn)
18,6.2,O=[N+]([O-])c1ccc2c(c1)c1ccccc1n2CCO
19,> 51.4,CCC(CC)C(=O)N1CCN(Cc2nc3ccccc3c(=O)[nH]2)CC1
20,0.7,Cc1ccc(C2=N/C(=C\c3ccc(F)cc3)C(=O)N2)cc1
21,> 44,CN(C)C(C)(C)C#CC(O)(c1ccccc1)c1ccccc1
22,> 47.3,CCCn1c(C)c(C(=O)OCC)c(O)c(-c2ccccc2)c1=O
23,5,CC(=O)c1ccc(NC(=O)CCOc2cc(C)ccc2C)cc1
24,9.4,Cc1ccc(-n2c(=O)[nH]c3c(C(N)=O)nc(C(C)C)nc32)cc1

row,solubility kinetic [µg/mL],SMILES
1,> 40.2,O=C(Nc1cccc(Br)c1)C1CCCC1
2,35.7,COc1cc2c(cc1OC)CN(Cc1ccc(F)cc1)CC2
3,2.1,COc1cccc(/C=c2\s/c(=C\C(=O)C(C)(C)C)[nH]c2=O)c1
4,9,Fc1ccccc1CNc1nc(-c2cccnc2)nc2ccccc12
5,0.9,CCCc1nc(SCC(=O)Nc2nccs2)c2ccccc2n1
6,0.4,CC(=O)NC(c1ccc(C(C)C)cc1)c1ccc2cccnc2c1O (stereo not drawn)
7,27,Cc1ccc(C)c(S(=O)(=O)c2c(C)cc(C)nc2Cl)c1
8,8.1,O=C(C#Cc1ccccc1)NCc1ccccc1F
9,> 57.5,CCN(CC)S(=O)(=O)c1ccc2oc(SCC(=O)NC3CC3)nc2c1
10,10.4,NS(=O)(=O)c1ccc(SCc2ccccc2)nc1
11,28.6,CC1CN(c2nc(N(C)c3ccccc3)nc(N)c2[N+](=O)[O-])CC(C)O1 (stereo not drawn)
12,> 42.1,O=C(Nc1cc(Cl)ccc1N1CCOCC1)C1CC1
13,> 50.6,c1ccc2c(NCCc3c[nH]c4ccccc34)c3ccccc3nc2c1
14,> 51.8,CCCC(=O)N1CCN(Cc2nc3cc([N+](=O)[O-])ccc3n2C)CC1
15,> 44.8,O=C(COC(=O)C1=COCCO1)Nc1ccc(Cl)cn1
16,19.1,CC1CCC(N2CCN(c3ccc([N+](=O)[O-])cc3)CC2)CC1 (stereo not drawn)
17,> 44.3,CO[C@H]1O[C@H](C)[C@@H](O)C[C@H]1NC(=O)OCc1ccccc1
18,0.8,CCCCOC(=O)c1ccc(NC(=O)C(=O)NCc2ccccn2)cc1
19,> 49,Cc1cccc(NC(=O)CCCN2C(=O)C3CC=CCC3C2=O)c1 (stereo not drawn)
20,> 50.8,CN(C)CC(C)(C)CNCc1cc(=O)oc2ccc3ccccc3c12
21,2.1,Br.CC(=O)c1cccc(Nc2nc(-c3ccccc3)cs2)c1
22,2.9,Cc1ccc(NC(=O)NCc2ccc3[nH]c(C)cc3c2)cc1
23,< 0.2,O=C(Nc1ccc(Cl)c(Cl)c1)Nc1ccccn1
24,20.9,O=c1oc2ccc(Cl)cc2nc1/C=C(\O)c1cccs1

row,solubility kinetic [µg/mL],SMILES
1,> 44.8,COc1cc(S(=O)(=O)Nc2cccnc2)ccc1Cl
2,55,O=C(COc1ccc(F)cc1Br)NCC1(N2CCCCC2)CCCCC1
3,> 38,CC(=O)NC1=NN(C(C)=O)C(c2ccco2)S1 (stereo not drawn)
4,51.3,Cn1c(=O)n(CC(=O)O)c(=O)c2c1nc1n2CCCN1Cc1ccccc1
5,> 51.4,Cc1ccccc1Nc1nc(N)nc(CSc2nnc(C)n2C)n1
6,2.5,O=C(/C=C/c1ccccc1)NCc1ccc2c(c1)OCO2
7,> 69.7,CC(=O)Nc1ccc(S(=O)(=O)NCCC(=O)N2CCN(c3ccccc3Cl)CC2)cc1
8,> 46.6,O=C(CCNC(=O)c1ccccc1Cl)NCC1CCCO1 (stereo not drawn)
9,> 40.7,Nc1nc2ccccc2n1CCOc1ccc(F)cc1
10,34.2,CCC(C)C(NC(N)=O)C(=O)NC1CCC(C)CC1 (stereo not drawn)
11,7.6,COc1ccc(/C=C/C(=O)OCC(=O)NC2CCCCCCC2)cc1
12,> 35.6,CNC(=O)COC(=O)/C=C/c1cccc(F)c1
13,> 45.1,O=C(NNC(=S)NC(=O)c1ccccc1)c1cccnc1
14,> 54,O=C(NCCCl)Nc1ccccc1NS(=O)(=O)c1cccs1
15,10.3,O=C1COc2ccccc2N1Cc1ccc(Cl)cc1
16,2.6,Cc1ccc(S(=O)(=O)N2CCOC2C(Cl)(Cl)Cl)cc1 (stereo not drawn)
17,6.5,CC(=O)NCCC(=O)Nc1nc(-c2ccc3ccccc3c2)cs1
18,11.2,COC(=O)CSc1ncnc2scc(-c3ccccc3)c12
19,> 38.4,Cc1c(-c2ccccc2)[n+](=O)c2c(n1[O-])CCCC2
20,> 42.7,CN1CCN(C(=O)CSc2ccc(Cl)cc2)CC1
21,> 63.1,O=C(O)c1cccc(Nc2nc3ccccc3nc2NS(=O)(=O)c2ccccc2)c1
22,> 48.2,COc1ccc(NC(C)=O)cc1CNC(=O)CN1CCOCC1
23,27.8,Cc1cc(C)c(OCCN2CCCC2)c(Cl)c1
24,> 43.1,CN(CC(=O)Nc1ccc(F)cc1)C(=O)c1ccncc1

row,solubility kinetic [µg/mL],SMILES
1,> 51.5,CCOc1ccccc1N1C(=O)CC(Sc2nccc(C)n2)C1=O (stereo not drawn)
2,> 67.6,CC(NC(=O)COC(=O)c1cc(S(=O)(=O)N2CCOCC2)ccc1F)c1ccccc1 (stereo not drawn)
3,6.8,COc1ccccc1N(CC(=O)N1CCCC1)S(=O)(=O)c1cc([N+](=O)[O-])ccc1Cl
4,> 50.6,COc1cc2ccccc2cc1C(=O)N1CCCC(C(F)(F)F)C1 (stereo not drawn)
5,< 0.4,COc1ccc2[nH]c(C(=O)Nc3ccc(F)cc3Br)cc2c1
6,43.6,CCOc1cc(N2CCOCC2)c(OCC)cc1NC(=O)C(C)Oc1ccccc1 (stereo not drawn)
7,> 40.5,O=C(COc1ccc(Br)cc1)NC1CC1
8,3.4,C=CCNC(=O)c1cc2c(=O)n3cccc(C)c3nc2s1
9,34.7,O=C(O)c1ccc(S(=O)(=O)NCC2CCCO2)cc1 (stereo not drawn)
10,4.7,Cc1ccc(NC(=O)/C(=C\c2ccccc2)NC(=O)c2ccco2)cc1
11,> 50.3,CCSc1nnc(NC(=O)c2nc3nc(C)cc(C)n3n2)s1
12,> 54.4,CSCCC(NC(=O)c1cccc(C)c1)C(=O)NCc1cccs1 (stereo not drawn)
13,35.6,Cc1nc(N)[nH]c(=O)c1Oc1cccc(C(F)(F)F)c1
14,> 34.4,O=C(NCc1ccccc1)c1ccc(=O)oc1
15,9.7,O=C(NC12CC3CC(CC(C3)C1)C2)c1ccc(Br)o1
16,42.8,CC(C)(CNC(=O)c1ccc(Br)o1)N1CCOCC1
17,0.9,O=C(OCc1ccccc1)N1CCc2ccccc21
18,> 46.8,O=C(Nc1ccccc1)C1CCCN1/C=C/C(=O)C(F)(F)F (stereo not drawn)
19,54.3,O=C(NCC(c1ccco1)N1CCN(c2ccccc2F)CC1)c1cccs1 (stereo not drawn)
20,16.6,COc1ccc(-c2cn3cc([N+](=O)[O-])ccc3n2)cc1OC
21,> 49.7,Cn1c(SCC(=O)NC2CCCCC2)nnc1-c1ccccn1

row,SMILES,solubility kinetic [µg/mL]
1,CCN1CCN(C(=O)COc2ccc3oc4c(c3c2)CCCC4)CC1,> 51.4
